In experiment [1] the target is T1, Androgen receptor (Homo sapiens) (UniProt P10275).
T1 sequence (whole entry): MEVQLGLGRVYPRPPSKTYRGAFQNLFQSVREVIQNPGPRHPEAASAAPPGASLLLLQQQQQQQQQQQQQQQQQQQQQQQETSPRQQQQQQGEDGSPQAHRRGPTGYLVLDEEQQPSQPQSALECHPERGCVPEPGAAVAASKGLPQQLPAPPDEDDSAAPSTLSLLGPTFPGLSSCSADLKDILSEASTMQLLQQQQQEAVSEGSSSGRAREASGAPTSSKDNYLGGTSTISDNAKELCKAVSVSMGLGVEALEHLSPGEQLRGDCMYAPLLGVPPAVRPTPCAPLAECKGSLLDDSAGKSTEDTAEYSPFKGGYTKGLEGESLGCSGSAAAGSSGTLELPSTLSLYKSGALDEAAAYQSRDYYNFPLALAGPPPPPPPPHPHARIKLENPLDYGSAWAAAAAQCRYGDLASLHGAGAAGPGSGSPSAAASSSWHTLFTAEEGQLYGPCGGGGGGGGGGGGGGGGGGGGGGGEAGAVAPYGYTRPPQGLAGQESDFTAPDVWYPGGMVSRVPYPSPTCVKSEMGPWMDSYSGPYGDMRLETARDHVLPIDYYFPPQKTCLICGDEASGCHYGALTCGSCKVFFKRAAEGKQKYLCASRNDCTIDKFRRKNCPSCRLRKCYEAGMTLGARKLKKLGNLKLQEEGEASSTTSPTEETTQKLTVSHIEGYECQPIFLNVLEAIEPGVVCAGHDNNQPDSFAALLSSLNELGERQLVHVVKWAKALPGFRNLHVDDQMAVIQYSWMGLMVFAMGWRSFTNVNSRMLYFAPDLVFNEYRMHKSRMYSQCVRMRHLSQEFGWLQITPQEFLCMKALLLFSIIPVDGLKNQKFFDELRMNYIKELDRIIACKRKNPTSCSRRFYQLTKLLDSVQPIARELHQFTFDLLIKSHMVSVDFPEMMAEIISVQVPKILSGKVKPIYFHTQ
As to conditions: HeLa.
Description: Agonist activity at androgen receptor expressed in HeLa cells assessed as effect on dihydrotestosterone-induced transcriptional activity by reporter gene assay

Experiment [2] concerns the target T2, Androgen receptor (Homo sapiens, UniProt P10275).
T2 sequence (P10275 whole entry): T1 sequence (whole entry)
Description: Antagonist activity at androgen receptor expressed in HeLa cells assessed as inhibition of dihydrotestosterone-induced transcriptional activity by reporter gene assay

The target in experiment [3] is T2, Androgen receptor. The experiment can be described thus: biochemical.
Description: Displacement of [3H]mibolerone from androgen receptor expressed in CHOK1 cells
In experiment [4] the test system is Mus musculus. Put plainly: Effect on po dosed seminal vesicle wet weight in mouse. It counts as functional, organism-based.
Experiment [5] deals with Mus musculus. The experiment can be described thus: Effect on subcutaneously dosed seminal vesicle wet weight in mouse. The class given is functional, organism-based.

Our source for the FI5, IC50 and Activity values is ChEMBL document CHEMBL1144524, “Discovery of 7alpha-substituted dihydrotestosterones as androgen receptor pure antagonists and their structure-activity relationships” (Bioorg Med Chem, 2007).

What is called IC50 is the concentration needed to halve the response being measured. A high value points to a need for much substance.

Calls of active or inactive are those of the source. No cut-off for these calls is given here.

On to `C[C@]12CC[C@H]3[C@@H]([C@H](CCCCCCCCCCC[S+]([O-])CCCC(F)(F)C(F)(F)F)CC4CC(=O)CC[C@@]43C)[C@@H]1CC[C@@H]2O` (some centres not stated), for which the FI5 in experiment [1] is over 10000 nM. Further, the IC50 at Androgen receptor [2] and on Androgen receptor [3] was over 10 µM each time.

On to `CCNC(=O)CCCCCCCC1C[C@H]2CC(=O)CC[C@]2(C)[C@H]2CC[C@]3(C)[C@@H](O)CC[C@H]3[C@H]12` (some centres not stated), for which the FI5 in experiment [1] is over 10000 nM. Also, the IC50 against Androgen receptor [2] stood at 0.94 µM; at Androgen receptor [3], 1.5 µM.

Turning to `CCCCN(C)C(=O)CCCCCCCCCCC[C@@H]1CC2CC(=O)CC[C@]2(C)[C@H]2CC[C@]3(C)[C@@H](O)CC[C@H]3[C@H]12` (some centres not stated), the FI5 in experiment [1] amounted to 9900 nM. Moreover, the IC50 worked out at 3.5 µM against Androgen receptor [2] and 9.9 µM against Androgen receptor [3].

In the case of `CCN(CC)C(=O)CCCCCCC1C[C@H]2CC(=O)CC[C@]2(C)[C@H]2CC[C@]3(C)[C@@H](O)CC[C@H]3[C@H]12` (some centres not stated), the FI5 in experiment [1] came out at 1700 nM. In addition, the IC50 at Androgen receptor [2] turned out to be 0.53 µM; against Androgen receptor [3], 0.33 µM.

`CCCCCCNC(=O)CCCCCCCC1C[C@H]2CC(=O)CC[C@]2(C)[C@H]2CC[C@]3(C)[C@@H](O)CC[C@H]3[C@H]12` (some centres not stated) displayed an FI5 in experiment [1] of over 10000 nM. The concentration for half-maximal inhibition (IC50) against Androgen receptor [2] was 6.6 µM; at Androgen receptor [3], 2.1 µM.

On to `CN(Cc1ccccc1)C(=O)CCCCCCCC1C[C@H]2CC(=O)CC[C@]2(C)[C@H]2CC[C@]3(C)[C@@H](O)CC[C@H]3[C@H]12` (some centres not stated), for which the FI5 in experiment [1] is over 10000 nM.

As to `CCCN(C)C(=O)CCCCCCCC1C[C@H]2CC(=O)CC[C@]2(C)[C@H]2CC[C@]3(C)[C@@H](O)CC[C@H]3[C@H]12` (some centres not stated), in experiment [1], the FI5 was over 10000 nM. Besides, the IC50 on Androgen receptor [2] was determined as 1.1 µM; at Androgen receptor [3], 0.3 µM.

In experiment [1], `C[C@]12CC[C@H]3[C@@H]([C@H](CCCCCCC[S+]([O-])CCCC(F)(F)C(F)(F)F)CC4CC(=O)CC[C@@]43C)[C@@H]1CC[C@@H]2O` (some centres not stated) returned an FI5 of 200 nM. Also, the IC50 against Androgen receptor [2] is over 10 µM; against Androgen receptor [3] it was 0.96 µM.

In the case of `CN(C)C(=O)CCCCCCC1C[C@H]2CC(=O)CC[C@]2(C)[C@H]2CC[C@]3(C)[C@@H](O)CC[C@H]3[C@H]12` (some centres not stated), the FI5 in experiment [1] was determined as 490 nM. For the same molecule, the IC50 on Androgen receptor [2] came out at 0.2 µM; on Androgen receptor [3], 0.11 µM.

With `CCN(CC)C(=O)CCCCCCCC1C[C@H]2CC(=O)CC[C@]2(C)[C@H]2CC[C@]3(C)[C@@H](O)CC[C@H]3[C@H]12` (some centres not stated), the FI5 in experiment [1] was over 10000 nM. For the same molecule, the results for the IC50 on Androgen receptor [2] and at Androgen receptor [3] were 0.3 µM and 0.12 µM, respectively.

Consider `C[C@]12CCC(=O)C[C@@H]1CC(CCCCCCCC(N)=O)[C@@H]1[C@@H]2CC[C@]2(C)[C@@H](O)CC[C@@H]12` (some centres not stated), for which the FI5 in experiment [1] was found to be 2400 nM. For the same molecule, the figures for the IC50 at Androgen receptor [2] and at Androgen receptor [3] were 0.45 µM and 0.26 µM, respectively.

Consider `C[C@]12CCC(=O)C[C@@H]1CC(CCCCCCCC(=O)N1CCOCC1)[C@@H]1[C@@H]2CC[C@]2(C)[C@@H](O)CC[C@@H]12` (some centres not stated), for which the FI5 in experiment [1] was over 10000 nM.

On to `CNC(=O)CCCCCCCC1C[C@H]2CC(=O)CC[C@]2(C)[C@H]2CC[C@]3(C)[C@@H](O)CC[C@H]3[C@H]12` (some centres not stated), for which the FI5 in experiment [1] is over 10000 nM. For the same molecule, the IC50 against Androgen receptor [2] is 0.48 µM; on Androgen receptor [3], 0.71 µM.

`C[C@]12CCC(=O)C[C@@H]1CC(CCCCCCCC(=O)N1CCCC1)[C@@H]1[C@@H]2CC[C@]2(C)[C@@H](O)CC[C@@H]12` (some centres not stated) showed an FI5 in experiment [1] of over 10000 nM. In addition, the IC50 stood at 0.3 µM against Androgen receptor [2] and 0.35 µM at Androgen receptor [3].

The molecule `CCCCN(C)C(=O)CCCCCCCC[C@@H]1CC2CC(=O)CC[C@]2(C)[C@H]2CC[C@]3(C)[C@@H](O)CC[C@H]3[C@H]12` (some centres not stated) returned an FI5 in experiment [1] of 550 nM. Moreover, the IC50 at Androgen receptor [2] stood at 3.4 µM; on Androgen receptor [3], 0.55 µM.

On to `CCCCNC(=O)CCCCCCCC1C[C@H]2CC(=O)CC[C@]2(C)[C@H]2CC[C@]3(C)[C@@H](O)CC[C@H]3[C@H]12` (some centres not stated), for which the FI5 in experiment [1] is 1600 nM. At Androgen receptor [2], the midpoint of inhibition, the IC50, lay at 6.3 µM.

On to `CN(C)C(=O)CCCCCCCC1C[C@H]2CC(=O)CC[C@]2(C)[C@H]2CC[C@]3(C)[C@@H](O)CC[C@H]3[C@H]12` (some centres not stated), for which the result with Mus musculus [4] and in the experiment with Mus musculus [5] was Active. This molecule also registered an FI5 in experiment [1] of over 10000 nM. For the same molecule, the values for the IC50 on Androgen receptor [2] and against Androgen receptor [3] were 0.19 µM and 0.26 µM, respectively.

`CC(C)N(C)C(=O)CCCCCCCC1C[C@H]2CC(=O)CC[C@]2(C)[C@H]2CC[C@]3(C)[C@@H](O)CC[C@H]3[C@H]12` (some centres not stated) showed an FI5 in experiment [1] of over 10000 nM. For the same molecule, the results for the IC50 against Androgen receptor [2] and against Androgen receptor [3] were 0.42 µM and 0.43 µM, respectively.

On to `CCCNC(=O)CCCCCCCC1C[C@H]2CC(=O)CC[C@]2(C)[C@H]2CC[C@]3(C)[C@@H](O)CC[C@H]3[C@H]12` (some centres not stated), for which the FI5 in experiment [1] was over 10000 nM. Further, the results for the IC50 against Androgen receptor [2] and on Androgen receptor [3] were 1.8 µM and 1.6 µM, respectively.

In turn, `CCCCCCN(CCCCCC)C(=O)CCCCCCCC1C[C@H]2CC(=O)CC[C@]2(C)[C@H]2CC[C@]3(C)[C@@H](O)CC[C@H]3[C@H]12` (some centres not stated) displayed an FI5 in experiment [1] of over 10000 nM. Also, the IC50 on Androgen receptor [2] and against Androgen receptor [3] was over 10 µM each time.

For `CCCCN(C)C(=O)CCCCCCC[C@@H]1CC2CC(=O)CC[C@]2(C)[C@H]2CC[C@]3(C)[C@@H](O)CC[C@H]3[C@H]12` (some centres not stated), the FI5 in experiment [1] amounted to 280 nM. In addition, the IC50 worked out at 0.34 µM at Androgen receptor [2] and 0.28 µM against Androgen receptor [3].

With `CCCCN(C)C(=O)CCCCCCCCC[C@@H]1CC2CC(=O)CC[C@]2(C)[C@H]2CC[C@]3(C)[C@@H](O)CC[C@H]3[C@H]12` (some centres not stated), the FI5 in experiment [1] stood at 570 nM. The IC50 was 1.8 µM on Androgen receptor [2] and 0.57 µM on Androgen receptor [3].

The molecule `C[C@]12CCC(=O)C[C@@H]1CC(CCCCCCCC(=O)N1CCCCC1)[C@@H]1[C@@H]2CC[C@]2(C)[C@@H](O)CC[C@@H]12` (some centres not stated) registered an FI5 in experiment [1] of over 10000 nM.

For the molecule `CCCCN(C)C(=O)CCCCCCCCCC[C@@H]1CC2CC(=O)CC[C@]2(C)[C@H]2CC[C@]3(C)[C@@H](O)CC[C@H]3[C@H]12` (some centres not stated), the FI5 in experiment [1] worked out at 1900 nM. Moreover, the figures for the IC50 on Androgen receptor [2] and at Androgen receptor [3] were 1.3 µM and 1.9 µM, respectively.

`C[C@]12CC[C@H]3[C@@H]([C@H](CCCCC[S+]([O-])CCCC(F)(F)C(F)(F)F)CC4CC(=O)CC[C@@]43C)[C@@H]1CC[C@@H]2O` (some centres not stated) registered an FI5 in experiment [1] of 16 nM. For the same molecule, the IC50 is over 10 µM against Androgen receptor [2] and 6.8 µM against Androgen receptor [3].

In experiment [1], `C[C@]12CC[C@H]3[C@@H]([C@H](CCCCCCCCC[S+]([O-])CCCC(F)(F)C(F)(F)F)CC4CC(=O)CC[C@@]43C)[C@@H]1CC[C@@H]2O` (some centres not stated) gave an FI5 of 490 nM. For the same molecule, the half-maximal inhibitory concentration (IC50) at Androgen receptor [2] was determined as 2.9 µM; at Androgen receptor [3], 0.11 µM.

`C[C@]12CC[C@H]3[C@@H]([C@H](CCCCCCCCCCCCC[S+]([O-])CCCC(F)(F)C(F)(F)F)CC4CC(=O)CC[C@@]43C)[C@@H]1CC[C@@H]2O` (some centres not stated) registered an FI5 in experiment [1] of over 10000 nM. Besides, the values for the IC50 at Androgen receptor [2] and on Androgen receptor [3] were 10 µM and over 10 µM, respectively.

Turning to `CCN(C)C(=O)CCCCCCCC1C[C@H]2CC(=O)CC[C@]2(C)[C@H]2CC[C@]3(C)[C@@H](O)CC[C@H]3[C@H]12` (some centres not stated), the FI5 in experiment [1] was over 10000 nM. In addition, the values for the IC50 against Androgen receptor [2] and at Androgen receptor [3] were 0.42 µM and 0.66 µM, respectively.

Consider `CCCCN(C)C(=O)CCCCCCCC1C[C@H]2CC(=O)CC[C@]2(C)[C@H]2CC[C@]3(C)[C@@H](O)CC[C@H]3[C@H]12` (some centres not stated), for which the FI5 in experiment [1] is over 10000 nM. Also, the IC50 at Androgen receptor [2] amounted to 0.34 µM; on Androgen receptor [3], 0.28 µM.
